Laboratory results as given in the supplement of paper PMC13380429.

Tests used:
Settings in all cases: 72 h
Caco-2 [1] = assay: drug sensitivity score (DSS) for viability; higher = more toxic; extreme values may be limits of the assay
Vero E6 [2] = assay: as above
HepG2 [3] = assay: as above
U2OS [4] = assay: as above
Calu-3 [5] = assay: as above
Caco-2 [6] = assay: cell viability relative to DMSO; higher = less toxic
Vero E6 [7] = assay: as above
HepG2 [8] = assay: as above
U2OS [9] = assay: as above
Calu-3 [10] = assay: as above
Caco-2 [11] = assay: relative viability EC50 (midpoint between 100% and the lowest measured viability); higher = less toxic
Vero E6 [12] = assay: as above
HepG2 [13] = assay: as above
U2OS [14] = assay: as above
Calu-3 [15] = assay: as above

Row | Compound | drug sensitivity score (Caco-2 [1]) | drug sensitivity score (Vero E6 [2]) | drug sensitivity score (HepG2 [3]) | drug sensitivity score (U2OS [4]) | drug sensitivity score (Calu-3 [5]) | cell viability (Caco-2 [6]; 1 nM) | cell viability (Caco-2 [6]; 10 nM) | cell viability (Caco-2 [6]; 100 nM) | cell viability (Caco-2 [6]; 1000 nM) | cell viability (Caco-2 [6]; 10000 nM) | cell viability (Vero E6 [7]; 1 nM) | cell viability (Vero E6 [7]; 10 nM) | cell viability (Vero E6 [7]; 100 nM) | cell viability (Vero E6 [7]; 1000 nM) | cell viability (Vero E6 [7]; 10000 nM) | cell viability (HepG2 [8]; 1 nM) | cell viability (HepG2 [8]; 10 nM) | cell viability (HepG2 [8]; 100 nM) | cell viability (HepG2 [8]; 1000 nM) | cell viability (HepG2 [8]; 10000 nM) | cell viability (U2OS [9]; 1 nM) | cell viability (U2OS [9]; 10 nM) | cell viability (U2OS [9]; 100 nM) | cell viability (U2OS [9]; 1000 nM) | cell viability (U2OS [9]; 10000 nM) | cell viability (Calu-3 [10]; 1 nM) | cell viability (Calu-3 [10]; 10 nM) | cell viability (Calu-3 [10]; 100 nM) | cell viability (Calu-3 [10]; 1000 nM) | cell viability (Calu-3 [10]; 10000 nM) | relative viability EC50 (Caco-2 [11]) | relative viability EC50 (Vero E6 [12]) | relative viability EC50 (HepG2 [13]) | relative viability EC50 (U2OS [14]) | relative viability EC50 (Calu-3 [15])
1 | COc1ccc(/C=C\c2cc(OC)c(OC)c(OC)c2)cc1OP(=O)(O)O [fosbretabulin] | 15.2 | 24.1 | 14.7 | 14.6 | 8.1 | 104% | 116% | 55.4% | 51.1% | 45.4% | 103% | 100% | 38.4% | 13% | 7% | 104% | 108% | 96.7% | 21.9% | 23.9% | 98.4% | 105% | 94% | 25.4% | 19.5% | 104% | 120% | 90.2% | 61.4% | 45.9% | 0.0584 µM | 0.0744 µM | 0.285 µM | 0.316 µM | 0.457 µM
2 | CCCCOc1c(C(=O)c2c(F)cc(C)cc2F)c[nH]c2nncc1-2 | 2.7 | 1.6 | 2.9 | 0 | 0 | 104% | 102% | 94% | 82.9% | 77.7% | 102% | 97.4% | 94.1% | 84.5% | 84.9% | 96.7% | 99.8% | 95.1% | 81.4% | 80.8% | 98% | 101% | 102% | 113% | 95.6% | 94.9% | 86.1% | 71.1% | 60.7% | 89.4% | > 10 µM | > 10 µM | > 10 µM | > 10 µM | > 10 µM
3 | COc1ccc(NS(=O)(=O)c2ccc(/N=N/c3ccc(O)c(C(=O)O)c3)cc2)nn1 [salazodine] | 0 | 0 | 0 | 0 | 0 | 111% | 89.4% | 97.4% | 95.4% | 93.7% | 105% | 108% | 95.7% | 101% | 101% | 99.6% | 97.7% | 92.5% | 95.1% | 96.9% | 101% | 98% | 98.6% | 96.2% | 102% | 98% | 108% | 102% | 116% | 111% | > 10 µM | > 10 µM | > 10 µM | > 10 µM | > 10 µM
4 | COc1ccccc1CN[C@H]1CCCN[C@H]1c1ccccc1 | 0 | 0 | 0 | 0 | 0 | 107% | 92.7% | 109% | 98.9% | 104% | 101% | 103% | 98% | 105% | 92.1% | 94.2% | 103% | 91.1% | 99.6% | 94.2% | 99% | 94.6% | 96.2% | 93.1% | 97.4% | 93.7% | 93.6% | 93.7% | 104% | 98.7% | > 10 µM | > 10 µM | > 10 µM | > 10 µM | > 10 µM
5 | CNC(=N)NCCC[C@H](N)C(=O)O [targinine] | 0 | 0.5 | 0 | 0 | 0 | 98.1% | 98% | 101% | 96.8% | 96% | 96.3% | 98.1% | 95.9% | 99.6% | 81.3% | 94.1% | 103% | 96.9% | 98.6% | 96.3% | 105% | 96.9% | 101% | 101% | 102% | 96.7% | 96.9% | 96.8% | 111% | 99.2% | > 10 µM | > 10 µM | > 10 µM | > 10 µM | > 10 µM
6 | C[C@H](CSC(=O)c1ccccc1)C(=O)N1C[C@@H](Sc2ccccc2)C[C@H]1C(=O)O [zofenopril-calcium] | 0 | 0 | 0 | 0 | 0.2 | 86.1% | 94.3% | 106% | 96.6% | 99.6% | 114% | 99.9% | 103% | 101% | 106% | 101% | 108% | 94.7% | 102% | 95.3% | 98.4% | 102% | 99.6% | 95.1% | 101% | 92.9% | 90.7% | 105% | 96% | 88.3% | > 10 µM | > 10 µM | > 10 µM | > 10 µM | > 10 µM
7 | CC(C)CN(C[C@@H](OP(=O)(O)O)[C@H](Cc1ccccc1)NC(=O)O[C@H]1CCOC1)S(=O)(=O)c1ccc(N)cc1 [fosamprenavir] | 0 | 0 | 0 | 0 | 0 | 93.7% | 91.5% | 96.5% | 98.1% | 99.6% | 102% | 101% | 99% | 100% | 96.5% | 99.8% | 106% | 102% | 93.5% | 98.7% | 101% | 94.8% | 95.9% | 94.2% | 109% | 113% | 103% | 107% | 98.2% | 108% | > 10 µM | > 10 µM | > 10 µM | > 10 µM | > 10 µM
8 | CC1(c2ccccc2)OC(C(=O)O)=CC1=O (stereo not given) [acifran] | 0 | 0 | 0 | 0 | 0 | 90.8% | 95.3% | 95.8% | 105% | 98.9% | 98.9% | 96.1% | 96.9% | 98.5% | 98% | 90.3% | 91.9% | 97.8% | 108% | 101% | 103% | 97.9% | 103% | 97.4% | 104% | 94.9% | 93.6% | 85.5% | 95.3% | 99.6% | > 10 µM | > 10 µM | > 10 µM | > 10 µM | > 10 µM
9 | CN1CCN(C(=O)CN[C@@H]2C[C@H]2c2ccc(OCc3ccccc3)cc2)CC1 [RN-1] | 1.5 | 0.1 | 0.7 | 0 | 0 | 109% | 95.2% | 90.2% | 89.2% | 83.3% | 99.5% | 102% | 105% | 92.2% | 89.1% | 87.4% | 103% | 99.9% | 94.2% | 84.9% | 103% | 98.3% | 102% | 96.7% | 96% | 89.9% | 82.5% | 96.1% | 94.5% | 108% | > 10 µM | > 10 µM | > 10 µM | > 10 µM | > 10 µM
10 | O=C(O)c1ccc2[nH]cc(CCCCN3CC=C(c4ccccc4)CC3)c2c1 [carmoxirole] | 0 | 0 | 0 | 0 | 0 | 106% | 107% | 103% | 91.2% | 105% | 99.2% | 100% | 93.6% | 102% | 95.8% | 98.4% | 93% | 86.7% | 100% | 88.3% | 103% | 99% | 96.9% | 100% | 101% | 98.7% | 112% | 92.4% | 96% | 90.8% | > 10 µM | > 10 µM | > 10 µM | > 10 µM | > 10 µM
11 | C[C@]12CC[C@H](O)CC1=CC[C@@H]1[C@@H]2CC[C@]2(C)C(c3cccnc3)=CC[C@@H]12 [Abiraterone (CB-7598)] | 0 | 0 | 0 | 0 | 0 | 87.1% | 92.3% | 100% | 101% | 98.1% | 99.9% | 95.2% | 93.9% | 96.4% | 112% | 97.7% | 92.7% | 103% | 95.1% | 103% | 95.3% | 101% | 95.7% | 103% | 104% | 96% | 107% | 100% | 98.3% | 100% | > 10 µM | > 10 µM | > 10 µM | > 10 µM | > 10 µM
12 | CCS(=O)(=O)N(C)[C@H]1c2cc(C#N)ccc2OC(C)(C)[C@@H]1O [chromanol-293B-(-)-[3R,4S]] | 0 | 0 | 0 | 0 | 0 | 94.3% | 93.2% | 90.4% | 93.3% | 88.9% | 96.6% | 107% | 98.2% | 92.5% | 110% | 104% | 102% | 91.6% | 103% | 98.7% | 93% | 93.8% | 99.1% | 94.3% | 95.2% | 105% | 99.2% | 95.5% | 106% | 90.6% | > 10 µM | > 10 µM | > 10 µM | > 10 µM | > 10 µM
13 | CN1CCC2=C(C1)C(c1ccccc1)c1ccccc12 (stereo not given) [phenindamine] | 0 | 0 | 0 | 0 | 0 | 97.4% | 95.1% | 99.1% | 102% | 89% | 98.9% | 96.3% | 97.4% | 99.7% | 97.2% | 97% | 88.6% | 98.2% | 94.3% | 88.9% | 94% | 100% | 93.8% | 98% | 92.6% | 96.7% | 107% | 98.2% | 106% | 99.1% | > 10 µM | > 10 µM | > 10 µM | > 10 µM | > 10 µM
14 | CCOC(=O)[N-]c1c[n+](N2CCOCC2)no1 [molsidomine] | 0 | 0 | 0 | 0 | 0.1 | 94.4% | 96.5% | 106% | 95.1% | 104% | 92.1% | 99.7% | 95.5% | 96.4% | 109% | 87.6% | 95.4% | 97.8% | 106% | 107% | 99.3% | 97.6% | 104% | 99.8% | 102% | 95.8% | 88.6% | 91.6% | 91.8% | 89.4% | > 10 µM | > 10 µM | > 10 µM | > 10 µM | > 10 µM
15 | O=C(CCCCCCCC(=O)NCCO)NCCO [adelmidrol] | 0 | 0 | 0 | 0 | 0 | 93.1% | 98.7% | 96.2% | 104% | 98.9% | 99.2% | 98.7% | 96.4% | 96% | 107% | 112% | 94.9% | 98.6% | 94.8% | 101% | 96.3% | 103% | 94.5% | 99.5% | 103% | 94.2% | 97.1% | 87.2% | 107% | 104% | > 10 µM | > 10 µM | > 10 µM | > 10 µM | > 10 µM
